# Patent US20230135894A1, “MK2 DEGRADERS AND USES THEREOF” (Kymera Therapeutics, Inc., priority 2021, published 2023)
# Assays:
# MK2 [1] = target: T1, MK2 (Homo sapiens, UniProt P49137); experiment: MK2 degradation in human THP-1 monocytic cells (MSD, 24 h); assay type: cell-based; design: endogenous in cells; details: for Dmax: THP-1, THP-1 cells; for DC50: THP-1 cells, read-out: MK2 MSD THP-1 degradation 24 h GMean External Abs DC50
# Experimental: MK2 Degradation in Human THP-1 Monoctyic Cells
# (§1) The human monocytic cancer cell line THP-1 (ATCC (TIB-202)) was cultured in 96 well plates (Corning 3894) at a density of 200,000 cells per well in 100 microlitres in complete growth medium of RPMI 1640 (Gibco) pus 10% fetal Bovine Serum (Corning) and Penicillin/Streptomycin (SolarBio) at 37 degrees Celsius and 5% CO2. A serial dilution of each compound (usually 3 to 5 fold serial dilutions up to 10 separate concentration points) was added to individual wells from a 10 millimolar stock solution, at a background concentration of 0.1% DMSO and the cells were shaken at 600 rpm for 5 minutes and then were cultured for 24 hours at 37 degrees Celsius and 5% carbon dioxide. Separately, a custom MSD (MesoScaleDiscovery, L15XA-3) plate for detection of human MK2 was prepared by coating the plate with the commercial AbCam ab247272 reagent in 1×Phosphate Buffered Saline at 40 microlitres per well and incubated at 4 degrees Celsius overnight. The next day, the MSD plate was washed with 150 microlitres of Tween buffered saline, blocked with MSD blocking buffer (3% Blocker A from MSD), and washed again.
# (§2) The cell plate was centrifuged at 3,200 g for 5 minutes and the supernatant was discarded and 100 microlitres of RIPA lysis buffer (containing proteinase inhibitors, Boston BioProducts BP-115D) was added and the plate was sealed and shaken on ice for 20 minutes. The plate was centrifuged as before and 70 microlitres of sample lysate was added to the MSD plates and they were shaken at room temperature for 1 hour at 600 rpm. The MSD plate was washed 3 times as before and then the primary MK2 detection antibody (Santa Cruz sc-100393) was added at a final concentration of 1 microgram per ml at 25 microlitres per well and shaken at room temperature for 1 hour at 600 rpm.
# (§3) After 3 more washes, the secondary detection antibody (SULFO-Tag anti rabbit antibody R32AB-5) was added at a final concentration of 1 microgram per ml at 25 microlitres per well and shaken at room temperature for 1 hour at 600 rpm. After 3 more washes, the 1×MSD (diluted from 5× concentrate with water) reading buffer was added at 150 microlitres per well and read on the MSD instrument Meso Sector S 600.
# (§4) The inhibition/degradation curves and DC50 values were plotted and calculated using XL Fit (version v5.3.1.3) using equation 201 and a 4 parameter logistic model whereby fit=(A+((B−A)/(1+((x/C)D))) where A is the Bottom and B is the Top and C is the IC50 and D is the slope and high C is the signal for the DMSO treated cells and Low C is the signal is the signal for the lysis buffer.
# MK2 [2] = target: T1, MK2; experiment: MK2 degradation in human SW1353 cells (MSD, 24 h); assay type: cell-based; design: endogenous in cells; host or cells: SW-1353 (ATCC HTB-94); details: for Dmax: read-out: MK2 MSD SW 1353 24 h Dmax %; for DC50: read-out: MK2 MSD SW1353 degradation 24 h GMean External Abs DC50
# Experimental: MK2 Degradation in Human SW1353 Cells
# as §1, with “chondrocyte” for “monocytic”, “SW-1353 (ATCC(HTB-94))” for “THP-1 (ATCC (TIB-202))”, “Leibovitz's L-15 Medium” for “RPMI 1640”, “Celsius.” for “Celsius and 5% CO2.”, “Celsius.” for “Celsius and 5% carbon dioxide.”
# as §2, §3, §4
# T1 sequence (P49137 whole entry): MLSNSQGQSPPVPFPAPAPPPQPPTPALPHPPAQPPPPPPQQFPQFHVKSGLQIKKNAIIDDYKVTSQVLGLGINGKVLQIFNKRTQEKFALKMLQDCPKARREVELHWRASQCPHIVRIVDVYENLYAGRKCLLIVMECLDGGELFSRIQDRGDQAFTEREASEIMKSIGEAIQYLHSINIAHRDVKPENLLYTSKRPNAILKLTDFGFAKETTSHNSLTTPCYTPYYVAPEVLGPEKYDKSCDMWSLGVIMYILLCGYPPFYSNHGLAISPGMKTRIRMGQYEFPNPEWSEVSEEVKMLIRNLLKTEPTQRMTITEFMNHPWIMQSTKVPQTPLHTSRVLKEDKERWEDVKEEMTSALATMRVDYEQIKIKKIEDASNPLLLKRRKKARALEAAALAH
Compound,Dmax (MK2 [1]) [%],DC50 (MK2 [1]) [nM],Dmax (MK2 [2]) [%],DC50 (MK2 [2]) [nM]
C[C@@H]1CNc2c(sc3ccc4nc(-c5cncc(C6CCN(CCCCCCCCc7cccc8c7n(C)c(=O)n8C7CCC(=O)NC7=O)CC6)c5)ccc4c23)C(=O)N1 (stereo partly drawn) [Compound I-103],> 75,< 1,> 75,1 to 10
C[C@@H]1CNc2c(sc3ccc4nc(-c5cccc(C6CCN(CCN7CCC(CCc8cccc9c8n(C)c(=O)n9C8CCC(=O)NC8=O)CC7)CC6)c5)ccc4c23)C(=O)N1 (stereo partly drawn) [Compound I-104],> 75,1 to 10,> 75,10 to 100
C[C@@H]1CNc2c(sc3ccc4nc(-c5cccc(N6CCN(CCN7CCC(CCc8cccc9c8n(C)c(=O)n9C8CCC(=O)NC8=O)CC7)CC6)c5)ccc4c23)C(=O)N1 (stereo partly drawn) [Compound I-105],> 75,< 1,> 75,1 to 10
C[C@@H]1CNc2c(sc3ccc4nc(-c5cccc(N6CCC(CN7CCC(CCc8cccc9c8n(C)c(=O)n9C8CCC(=O)NC8=O)CC7)CC6)c5)ccc4c23)C(=O)N1 (stereo partly drawn) [Compound I-106],> 75,< 1,> 75,1 to 10
C[C@@H]1CNc2c(sc3ccc4nc(-c5cccc(N6CCC(CN7CCN(CCc8cccc9c8n(C)c(=O)n9C8CCC(=O)NC8=O)CC7)CC6)c5)ccc4c23)C(=O)N1 (stereo partly drawn) [Compound I-107],> 75,< 1,> 75,1 to 10
C[C@@H]1CNc2c(sc3ccc4nc(-c5cccc(N6CCN(CCCc7ccc8c(c7)n(C)c(=O)n8C7CCC(=O)NC7=O)CC6)c5)ccc4c23)C(=O)N1 (stereo partly drawn) [Compound I-118],> 75,< 1,> 75,< 1
C[C@@H]1CNc2c(sc3ccc4nc(-c5ccc(N6CCC(CN7CCC(c8ccc9c(c8)n(C)c(=O)n9C8CCC(=O)NC8=O)CC7)CC6)cc5)ccc4c23)C(=O)N1 (stereo partly drawn) [Compound I-119],> 75,< 1,> 75,< 1
Cn1c(=O)n(C2CCC(=O)NC2=O)c2cccc(N3CCC(CN4CCN(c5ccc(-c6cc(-c7cc8c([nH]7)CCNC8=O)ccn6)cc5)CC4)CC3)c21 (stereo not drawn) [Compound I-120],> 75,1 to 10,> 75,1 to 10
Cn1c(=O)n(C2CCC(=O)NC2=O)c2ccc(CCCN3CCN(c4cccc(-c5ccc(-c6cc7c([nH]6)CCNC7=O)cn5)c4)CC3)cc21 (stereo not drawn) [Compound I-121],< 50,> 100,< 50,> 100
C[C@@H]1CNc2c(sc3ccc4nc(-c5ccc(C6CCN(CC7CCN(c8cccc9c8n(C)c(=O)n9C8CCC(=O)NC8=O)CC7)CC6)nc5)ccc4c23)C(=O)N1 (stereo partly drawn) [Compound I-122],> 75,< 1,> 75,< 1
C[C@@H]1CNc2c(sc3ccc4nc(-c5ccc(N6CCN(CC7CCN(c8cccc9c8n(C)c(=O)n9C8CCC(=O)NC8=O)CC7)CC6)nc5)ccc4c23)C(=O)N1 (stereo partly drawn) [Compound I-125],> 75,< 1,> 75,< 1
C[C@@H]1CNc2c(sc3ccc4nc(-c5ccc(N6CCN(CC7CCN(c8cccc9c8n(C)c(=O)n9C8CCC(=O)NC8=O)CC7)CC6)cc5)ccc4c23)C(=O)N1 (stereo partly drawn) [Compound I-126],> 75,1 to 10,> 75,1 to 10
C[C@@H]1CNc2c(sc3ccc4nc(-c5ccc(N6CCN(CCC7CCN(c8cccc9c8n(C)c(=O)n9C8CCC(=O)NC8=O)CC7)CC6)cc5)ccc4c23)C(=O)N1 (stereo partly drawn) [Compound I-127],> 75,1 to 10,> 75,1 to 10
C[C@@H]1CNc2c(sc3ccc4nc(-c5ccc(N6CCC(CCN7CCN(c8cccc9c8n(C)c(=O)n9C8CCC(=O)NC8=O)CC7)CC6)cc5)ccc4c23)C(=O)N1 (stereo partly drawn) [Compound I-128],> 75,1 to 10,> 75,1 to 10
C[C@@H]1CNc2c(sc3ccc4nc(-c5ccc(N6CCN(CC7CCN(c8ccc9c(c8)n(C)c(=O)n9C8CCC(=O)NC8=O)CC7)CC6)nc5)ccc4c23)C(=O)N1 (stereo partly drawn) [Compound I-129],> 75,< 1,> 75,< 1
C[C@@H]1CNc2c(sc3ccc4nc(-c5ccc(N6CCN(CC7CCN(c8ccc9c(c8)n(C)c(=O)n9C8CCC(=O)NC8=O)CC7)CC6)cc5)ccc4c23)C(=O)N1 (stereo partly drawn) [Compound I-130],> 75,< 1,> 75,< 1
C[C@@H]1CNc2c(sc3ccc4nc(-c5ccc(N6CCC(CCN7CCN(c8ccc9c(c8)n(C)c(=O)n9C8CCC(=O)NC8=O)CC7)CC6)cc5)ccc4c23)C(=O)N1 (stereo partly drawn) [Compound I-131],> 75,< 1,> 75,< 1
Cn1c(=O)n(C2CCC(=O)NC2=O)c2cccc(CCCN3CCN(c4ccc(F)c(-c5cc(-c6cc7c([nH]6)CCNC7=O)ccn5)c4)CC3)c21 (stereo not drawn) [Compound I-133],< 50,> 100,< 50,> 100
Cn1c(=O)n(C2CCC(=O)NC2=O)c2cccc(CCCCCN3CCN(c4ccc(F)c(-c5cc(-c6cc7c([nH]6)CCNC7=O)ccn5)c4)CC3)c21 (stereo not drawn) [Compound I-134],< 50,> 100,< 50,> 100
Cn1c(=O)n(C2CCC(=O)NC2=O)c2cccc(CCCCCCCN3CCN(c4ccc(F)c(-c5cc(-c6cc7c([nH]6)CCNC7=O)ccn5)c4)CC3)c21 (stereo not drawn) [Compound I-135],< 50,> 100,< 50,> 100
Cn1c(=O)n(C2CCC(=O)NC2=O)c2cccc(C3CCN(CC4CCN(c5ccc(-c6cc(-c7cc8c([nH]7)CCNC8=O)ccn6)c(F)c5)CC4)CC3)c21 (stereo not drawn) [Compound I-137],> 75,1 to 10,> 75,< 1
Cn1c(=O)n(C2CCC(=O)NC2=O)c2cccc(N3CCC(CN4CCN(c5ccc(-c6cc(-c7cc8c([nH]7)CCNC8=O)ccn6)cn5)CC4)CC3)c21 (stereo not drawn) [Compound I-138],> 75,< 1,> 75,< 1
Cn1c(=O)n(C2CCC(=O)NC2=O)c2cccc(N3CCC(CCN4CCN(c5ccc(-c6cc(-c7cc8c([nH]7)CCNC8=O)ccn6)cc5)CC4)CC3)c21 (stereo not drawn) [Compound I-139],> 75,< 1,> 75,1 to 10
Cn1c(=O)n(C2CCC(=O)NC2=O)c2ccc(N3CCC(CN4CCN(c5ccc(-c6cc(-c7cc8c([nH]7)CCNC8=O)ccn6)cn5)CC4)CC3)cc21 (stereo not drawn) [Compound I-141],> 75,< 1,> 75,< 1
